PubChem BioAssay AID192 (DTP/NCI, 2004)
Values joined by “and” are separate entries in the source; they are usually repeats but may differ in a detail not shown here. Equal values may be shown once. Toxic doses and inconclusive results are not listed.

Test system: BDF1 mice, B16 melanoma ip, median survival T/C
Assay: NCI In Vivo Anticancer Drug Screen. Data for tumor model B16 Melanoma (intraperitoneal) in B6D2F1 (BDF1) mice
Settings: endpoint: median survival time, higher = longer survival
Outline: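 Mice with transplantable tumors; drug vs vehicle groups; endpoint survival or tumor size; value = T/C.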

[1] = dose: 0.12 mg/kg/injection, schedule: Q01DX009 (ip), vehicle: saline
[2] = dose: 0.25 mg/kg/injection, schedule: Q01DX009 (ip), vehicle: saline
[3] = dose: 0.5 mg/kg/injection, schedule: Q01DX009 (ip), vehicle: saline
[4] = dose: 100.0 mg/kg/injection, schedule: Q01DX009 (ip), vehicle: saline with Tween-80
[5] = dose: 200.0 mg/kg/injection, schedule: Q01DX009 (ip), vehicle: saline with Tween-80
[6] = dose: 25.0 mg/kg/injection, schedule: Q01DX009 (ip), vehicle: saline with Tween-80
[7] = dose: 50.0 mg/kg/injection, schedule: Q01DX009 (ip), vehicle: saline with Tween-80
[8] = dose: 25.0 mg/kg/injection, schedule: Q01DX009 (ip), vehicle: Klucel (hydroxypropylcellulose) (HPC)
[9] = dose: 50.0 mg/kg/injection, schedule: Q01DX009 (ip), vehicle: Klucel (hydroxypropylcellulose) (HPC)
[10] = dose: 100.0 mg/kg/injection, schedule: Q01DX009 (ip), vehicle: Klucel (hydroxypropylcellulose) (HPC)
[11] = dose: 12.5 mg/kg/injection, schedule: Q01DX009 (ip), vehicle: other
[12] = dose: 12.5 mg/kg/injection, schedule: Q01DX009 (ip), vehicle: saline with Tween-80
[13] = dose: 50.0 mg/kg/injection, schedule: Q01DX009 (ip), vehicle: saline
[14] = dose: 100.0 mg/kg/injection, schedule: Q01DX009 (ip), vehicle: saline
[15] = dose: 100.0 mg/kg/injection, schedule: Q04DX003 (ip), vehicle: Klucel (hydroxypropylcellulose) (HPC)
[16] = dose: 200.0 mg/kg/injection, schedule: Q04DX003 (ip), vehicle: Klucel (hydroxypropylcellulose) (HPC)

## CC(C)C[CH2][Pb]([Cl])([CH2]CC(C)C)[CH2]CC(C)C
dose: 0.06 mg/kg/injection, schedule: Q01DX009 (ip), vehicle: saline
  T/C: 95 % of control
dose: 0.12 mg/kg/injection, schedule: Q01DX009 (ip), vehicle: Klucel (hydroxypropylcellulose) (HPC)
  T/C: 100 % of control
[1]
  T/C: 104 % of control
[2]
  T/C: 96 % of control
dose: 0.5 mg/kg/injection, schedule: Q01DX009 (ip), vehicle: Klucel (hydroxypropylcellulose) (HPC)
  T/C: 93 % of control
[3]
  T/C: 100 % of control
dose: 1.0 mg/kg/injection, schedule: Q01DX009 (ip), vehicle: Klucel (hydroxypropylcellulose) (HPC)
  T/C: 89 % of control
dose: 1.0 mg/kg/injection, schedule: Q01DX009 (ip), vehicle: saline
  T/C: 104 % of control
dose: 2.0 mg/kg/injection, schedule: Q01DX009 (ip), vehicle: saline
  T/C: 101 % of control
dose: 4.0 mg/kg/injection, schedule: Q01DX009 (ip), vehicle: saline
  T/C: 98 % of control
dose: 8.0 mg/kg/injection, schedule: Q01DX009 (ip), vehicle: saline
  T/C: 94 % of control

## CCOC(=O)c1ccc(OC(=O)Nc2ccc(Cl)cc2)cc1
[4]
  T/C: 96 % of control
[5]
  T/C: 92 % of control

## CCC(C)C(C(=O)OCCN(C)C)c1ccccc1 (centres undefined)
[6]
  T/C: 100 % of control
[7]
  T/C: 112 % of control
[4]
  T/C: 99 % of control

## COc1ccc2nc3cc(Cl)ccc3c(NC(C)CCCN(CCCl)CCCl)c2c1 (centres undefined)
[1]
  T/C: 114 % of control
[2]
  T/C: 105 % of control
[3]
  T/C: 105 % of control
dose: 0.62 mg/kg/injection, schedule: Q04DX003 (ip), vehicle: saline with Tween-80
  T/C: 110 % of control
dose: 1.25 mg/kg/injection, schedule: Q04DX003 (ip), vehicle: saline with Tween-80
  T/C: 110 % of control

## CC(NC(C)c1ccccc1)c1ccccc1 (centres undefined)
[8]
  T/C: 93 % of control
[9]
  T/C: 106 % of control
[10]
  T/C: 96 % of control

## CCCCCCCCCCCCCCCC(=O)N(C(C)CCCN(CC)CC)C(C)CCCN(CC)CC (centres undefined)
dose: 3.13 mg/kg/injection, schedule: Q01DX009 (ip), vehicle: other
  T/C: 91 % of control
[11]
  T/C: 92 % of control

## C[C@]12CCC(=O)C=C1CC[C@@H]1[C@@H]2C(=O)C[C@]2(C)C3=CC(=O)O[C@H]3C[C@@H]12
[12]
  T/C: 100 % of control
[6]
  T/C: 100 % of control

## Nc1ncnc(N)c1N=O
[13]
  T/C: 118 % of control
[14]
  T/C: 115 % of control

## COc1ccc(NC(=O)Oc2ccc(OC)cc2)cc1
[10]
  T/C: 90 % of control
dose: 200.0 mg/kg/injection, schedule: Q01DX009 (ip), vehicle: Klucel (hydroxypropylcellulose) (HPC)
  T/C: 93 % of control
dose: 400.0 mg/kg/injection, schedule: Q01DX009 (ip), vehicle: Klucel (hydroxypropylcellulose) (HPC)
  T/C: 93 % of control

## O=C(Nc1cccc(Cl)c1)ON1C(=O)C2C(C1=O)C1(Cl)C(Cl)C(Cl)C2(Cl)C1(Cl)Cl (centres undefined)
[12]
  T/C: 87 % of control
[6]
  T/C: 96 % of control

## CC(NC(=O)C(N)CCC(=O)O)C(=O)O (centres undefined)
[13]
  T/C: 97 % of control
[14]
  T/C: 90 % of control
dose: 200.0 mg/kg/injection, schedule: Q01DX009 (ip), vehicle: saline
  T/C: 90 % of control
dose: 400.0 mg/kg/injection, schedule: Q01DX009 (ip), vehicle: saline
  T/C: 94 % of control

## CC(=O)C1=C(C)NC(C)=C(C(C)=O)C1c1cccc([N+](=O)[O-])c1
[6]
  T/C: 94 % of control
[7]
  T/C: 94 % of control
[4]
  T/C: 97 % of control

## COc1cc2cc[n+]3c(C)c4cc5c(cc4cc3c2cc1OC)OCO5 (tested in a mixture with another compound)
dose: 6.25 mg/kg/injection, schedule: Q01DX009 (ip), vehicle: saline
  T/C: 94 % of control
dose: 12.5 mg/kg/injection, schedule: Q01DX009 (ip), vehicle: saline
  T/C: 105 % of control

## S=c1[nH]nc(NC2CCCCC2)s1
[8]
  T/C: 97 % of control
[9]
  T/C: 91 % of control
[15]
  T/C: 97 % of control
[16]
  T/C: 91 % of control

## COc1c(C(C)(C)C)cc([N+](=O)[O-])c(C)c1[N+](=O)[O-]
[15]
  T/C: 100 % of control
[16]
  T/C: 96 % of control
dose: 400.0 mg/kg/injection, schedule: Q04DX003 (ip), vehicle: Klucel (hydroxypropylcellulose) (HPC)
  T/C: 87 % of control

## O=[N+]([O-])c1cc(Cl)cc2c1nc(NCCO)c1ccccc12
[12]
  T/C: 97 % of control
[6]
  T/C: 97 % of control

## CCOc1ccccc1NC(=O)Nc1ccccc1Cl
[4]
  T/C: 103 % of control
[5]
  T/C: 94 % of control
dose: 400.0 mg/kg/injection, schedule: Q01DX009 (ip), vehicle: saline with Tween-80
  T/C: 89 % of control

## CCC(=O)Oc1ccc(/C=N/NC(N)=S)nc1
[13]
  T/C: 153 % of control
[14]
  T/C: 121 % of control

## CC1(C)N=C(N)N=C(N)N1c1ccc(CCCCc2ccc(S(=O)(=O)F)cc2Cl)c(Cl)c1
dose: 1.56 mg/kg/injection, schedule: Q01DX009 (ip), vehicle: saline with Tween-80
  T/C: 120 % of control
dose: 3.13 mg/kg/injection, schedule: Q01DX009 (ip), vehicle: saline with Tween-80
  T/C: 120 % of control
dose: 3.13 mg/kg/injection, schedule: Q01DX009 (ip), vehicle: saline
  T/C: 117 % of control
dose: 6.25 mg/kg/injection, schedule: Q01DX009 (ip), vehicle: saline with Tween-80
  T/C: 176 % of control
dose: 9.4 mg/kg/injection, schedule: Q04DX003 (ip), vehicle: saline
  T/C: 120 % of control
[12]
  T/C: 158 % of control and 189 % of control
dose: 18.75 mg/kg/injection, schedule: Q04DX003 (ip), vehicle: saline
  T/C: 119 % of control
[6]
  T/C: 164 % of control and 200 % of control
dose: 25.0 mg/kg/injection, schedule: Q01DX009 (ip), vehicle: saline
  T/C: 158 % of control
[7]
  T/C: 182 % of control and 189 % of control
[13]
  T/C: 178 % of control
dose: 89.0 mg/kg/injection, schedule: Q04DX003 (ip), vehicle: saline with Tween-80
  T/C: 157 % of control
[4]
  T/C: 197 % of control
dose: 133.0 mg/kg/injection, schedule: Q04DX003 (ip), vehicle: saline with Tween-80
  T/C: 95 % of control
dose: 150.0 mg/kg/injection, schedule: Q04DX003 (ip), vehicle: saline
  T/C: 160 % of control

## CCCCCC(=O)c1ccc(O)cc1O
dose: 12.5 mg/kg/injection, schedule: Q01DX009 (ip), vehicle: gum acacia
  T/C: 102 % of control
dose: 25.0 mg/kg/injection, schedule: Q01DX009 (ip), vehicle: gum acacia
  T/C: 89 % of control

## COc1ccc(C(C#N)N2CCOCC2)cc1 (centres undefined)
[9]
  T/C: 89 % of control
dose: 50.0 mg/kg/injection, schedule: Q04DX003 (ip), vehicle: Klucel (hydroxypropylcellulose) (HPC)
  T/C: 95 % of control
[15]
  T/C: 97 % of control

## CC1OC(C)(C)OC1C(=O)O (centres undefined)
dose: 6.25 mg/kg/injection, schedule: Q01DX009 (ip), vehicle: water
  T/C: 96 % of control
dose: 12.5 mg/kg/injection, schedule: Q01DX009 (ip), vehicle: water
  T/C: 119 % of control
dose: 25.0 mg/kg/injection, schedule: Q01DX009 (ip), vehicle: water
  T/C: 104 % of control
dose: 50.0 mg/kg/injection, schedule: Q01DX009 (ip), vehicle: water
  T/C: 105 % of control

## COc1cc(NS(C)(=O)=O)ccc1Nc1c2cccc(C)c2nc2c(C)cccc12
dose: 0.8 mg/kg/injection, schedule: Q01DX009 (ip), vehicle: other
  T/C: 115 % of control
dose: 1.6 mg/kg/injection, schedule: Q01DX009 (ip), vehicle: other
  T/C: 115 % of control
dose: 6.25 mg/kg/injection, schedule: Q01DX009 (ip), vehicle: saline sonified
  T/C: 158 % of control
[11]
  T/C: 189 % of control
dose: 12.5 mg/kg/injection, schedule: Q01DX009 (ip), vehicle: saline sonified
  T/C: 204 % of control
dose: 25.0 mg/kg/injection, schedule: Q01DX009 (ip), vehicle: other
  T/C: 208 % of control
dose: 25.0 mg/kg/injection, schedule: Q01DX009 (ip), vehicle: saline sonified
  T/C: 183 % of control
dose: 25.0 mg/kg/injection, schedule: Q04DX003 (ip), vehicle: other
  T/C: 166 % of control
dose: 50.0 mg/kg/injection, schedule: Q01DX001 (ip), vehicle: saline sonified
  T/C: 169 % of control
dose: 50.0 mg/kg/injection, schedule: Q04DX003 (ip), vehicle: other
  T/C: 156 % of control
dose: 100.0 mg/kg/injection, schedule: Q01DX001 (ip), vehicle: saline sonified
  T/C: 165 % of control
dose: 200.0 mg/kg/injection, schedule: Q01DX001 (ip), vehicle: saline sonified
  T/C: 152 % of control
